How the values were obtained:
[1] = molecular target: T1, human recombinant wild-type ALK kinase domain (amino acids 1093-1411) (Homo sapiens, UniProt Q9UM73); experiment: ALK enzyme assay 2 (microfluidic mobility shift assay); assay type: biochemical;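 also: kinase reaction run 1 h at room temperature, conversion quantified by electrophoretic separation of fluorescent peptide substrate from phosphorylated product, about 15-20% turnover without inhibitor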
T1 construct: ALK kinase domain (amino acids 1093-1411); made in house
T1 sequence (Q9UM73 1093-1411): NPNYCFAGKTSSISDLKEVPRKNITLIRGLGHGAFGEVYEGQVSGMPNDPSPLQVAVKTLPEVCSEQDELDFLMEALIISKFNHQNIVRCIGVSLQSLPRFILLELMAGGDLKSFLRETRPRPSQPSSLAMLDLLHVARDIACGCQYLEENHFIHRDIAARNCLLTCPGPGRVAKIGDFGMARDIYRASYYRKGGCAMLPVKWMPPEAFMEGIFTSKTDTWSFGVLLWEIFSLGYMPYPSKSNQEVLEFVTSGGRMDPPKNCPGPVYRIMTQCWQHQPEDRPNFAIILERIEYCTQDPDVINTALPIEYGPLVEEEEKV
Protocol: The reactions were incubated for 1 h at room temperature, stopped by the addition of 0.1 M EDTA, pH 8, and the extent of reactions (˜15-20% conversion with no inhibitor) was determined after electrophoretic separation of the fluorescently labeled peptide substrate and phosphorylated product on an LabChip EZ Reader II (Caliper Life Sciences, Hopkinton, Mass.).

[2] = molecular target: EML4-ALK wt v1 in NIH-3T3 cells (Homo sapiens, UniProt Q9UM73)
EML4-ALK wt v1 in NIH-3T3 cells, sequence (Q9UM73 with tags, fused parts or gaps): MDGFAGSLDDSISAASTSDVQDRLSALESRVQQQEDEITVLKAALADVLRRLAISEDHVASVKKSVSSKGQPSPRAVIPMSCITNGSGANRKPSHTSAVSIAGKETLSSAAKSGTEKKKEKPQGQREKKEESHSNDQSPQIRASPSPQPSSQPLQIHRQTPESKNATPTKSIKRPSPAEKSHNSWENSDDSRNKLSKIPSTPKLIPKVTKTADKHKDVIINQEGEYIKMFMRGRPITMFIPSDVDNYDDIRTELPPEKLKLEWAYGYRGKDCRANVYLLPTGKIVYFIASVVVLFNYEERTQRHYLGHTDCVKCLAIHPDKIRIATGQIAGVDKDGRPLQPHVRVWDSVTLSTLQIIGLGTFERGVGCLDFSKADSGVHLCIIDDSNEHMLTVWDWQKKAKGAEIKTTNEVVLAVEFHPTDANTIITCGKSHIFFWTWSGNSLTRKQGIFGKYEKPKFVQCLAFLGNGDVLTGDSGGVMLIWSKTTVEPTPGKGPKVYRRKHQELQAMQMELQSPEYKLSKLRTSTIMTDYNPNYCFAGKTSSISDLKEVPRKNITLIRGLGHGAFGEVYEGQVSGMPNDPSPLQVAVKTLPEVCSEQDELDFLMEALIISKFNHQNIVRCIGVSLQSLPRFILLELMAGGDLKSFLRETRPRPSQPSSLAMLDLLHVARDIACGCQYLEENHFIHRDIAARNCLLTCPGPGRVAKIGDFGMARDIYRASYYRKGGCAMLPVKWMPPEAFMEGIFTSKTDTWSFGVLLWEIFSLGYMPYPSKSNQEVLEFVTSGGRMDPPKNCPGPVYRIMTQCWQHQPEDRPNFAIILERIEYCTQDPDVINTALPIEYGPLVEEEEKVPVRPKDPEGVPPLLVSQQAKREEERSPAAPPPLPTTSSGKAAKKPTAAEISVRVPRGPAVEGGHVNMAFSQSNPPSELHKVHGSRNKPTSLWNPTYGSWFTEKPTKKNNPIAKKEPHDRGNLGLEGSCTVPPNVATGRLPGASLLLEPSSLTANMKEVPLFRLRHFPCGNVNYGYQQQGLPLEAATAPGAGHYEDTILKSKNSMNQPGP

Row | Ki [1] | IC50 [2] | Compound
1 | < 0.2 nM | 3.75 nM | CNS(=O)(=O)c1cc(-c2cnc(N)c(O[C@H](C)c3cc(F)ccc3-n3nccn3)c2)ccc1OC [Example 142, 5-(6-amino-5-{(1R)-1-[5-fluoro-2-(2H-1,2,3-triazol-2-yl)phenyl]ethoxy}pyridin-3-yl)-2-methoxy-N-methylbenzenesulfonamide]
2 | < 0.2 nM | 4.39 nM | C[C@@H](Oc1cc(-c2ccc(CO)c(S(C)(=O)=O)c2)cnc1N)c1cc(F)ccc1-n1nccn1 [Example 119, [4-(6-amino-5-{(1R)-1-[5-fluoro-2-(2H-1,2,3-triazol-2-yl)phenyl]ethoxy}pyridin-3-yl)-2-(methylsulfonyl)phenyl]methanol]
3 | 0.68 nM | 21.5 nM | C[C@@H](Oc1cc(-c2cnc(CO)s2)cnc1N)c1cc(F)ccc1-n1nccn1 [Example 106, [5-(6-amino-5-{(1R)-1-[5-fluoro-2-(2H-1,2,3-triazol-2-yl)phenyl]ethoxy}pyridin-3-yl)-1,3-thiazol-2-yl]methanol]
4 | < 0.2 nM | 10.5 nM | CCc1nc(CS(C)(=O)=O)sc1-c1cnc(N)c(O[C@H](C)c2cc(F)ccc2-n2nccn2)c1 [Example 145, (R)-5-(4-ethyl-2-((methylsulfonyl)methyl)thiazol-5-yl)-3-(1-(5-fluoro-2-(2H-1,2,3-triazol-2-yl)phenyl)ethoxy)pyridin-2-amine]
5 | 1.1 nM | 52.6 nM | COc1ncccc1-c1cnc(N)c(OC(C)c2cc(F)ccc2N2CCCC2=O)n1 (stereo not drawn) [Example 69, 1-[2-(1-{[3-amino-6-(2-methoxypyridin-3-yl)pyrazin-2-yl]oxy}ethyl)-4-fluorophenyl]pyrroli-din-2-one]
6 | < 0.2 nM | 0.622 nM | C[C@@H](Oc1cc(-c2ccc(C(C)(C)O)c(S(C)(=O)=O)c2)cnc1N)c1cc(F)ccc1-n1nccn1 [Example 111, 2-[4-(6-amino-5-{(1R)-1-[5-fluoro-2-(2H-1,2,3-triazol-2-yl)phenyl]ethoxy}pyridin-3-yl)-2-(methylsulfonyl)phenyl]propan-2-ol]
7 | < 0.2 nM | 15 nM | Cc1nc(C(C)(C)O)sc1-c1cnc(N)c(O[C@H](C)c2cc(F)ccc2-n2nccn2)n1 [Example 103, 2-[5-(5-amino-6-{(1R)-1-[5-fluoro-2-(2H-1,2,3-triazol-2-yl)phenyl]ethoxy}pyrazin-2-yl)-4-methyl-1,3-thiazol-2-yl]propan-2-ol]
8 | < 0.2 nM | 0.793 nM | Cc1nn(CC(O)CO)c(C)c1-c1cnc(N)c(O[C@H](C)c2cc(F)ccc2-n2nccn2)c1 (stereo partly drawn) [Example 91, 3-[4-(6-amino-5-{(1R)-1-[5-fluoro-2-(2H-1,2,3-triazol-2-yl)phenyl]ethoxy}pyridin-3-yl)-3,5-dimethyl-1H-pyrazol-1-yl]propane-1,2-diol]
9 | 2.14 nM | 161 nM | Cc1nc(C#N)c(-c2cnc(N)c(O[C@H](C)c3cc(F)ccc3-n3nccn3)c2)o1 [Example 120, 5-(6-amino-5-{(1R)-1-[5-fluoro-2-(2H-1,2,3-triazol-2-yl)phenyl]ethoxy}pyridin-3-yl)-2-methyl-1,3-oxazole-4-carbonitrile]
10 | < 0.2 nM | 4.5 nM | COc1ccc(F)cc1[C@@H](C)Oc1nc(-c2ccc([C@H](C)N)cc2)cnc1N [Example 68, 5-{4-[(1S)-1-aminoethyl]phenyl}-3-[(1R)-1-(5-fluoro-2-methoxyphenyl)eth-oxy]pyrazin-2-amine]
11 | < 0.2 nM | 4.17 nM | C[C@@H](Oc1cc(-c2c[nH]nc2C#N)cnc1N)c1cc(F)ccc1-n1nccn1 [Example 116, 4-(6-amino-5-{(1R)-1-[5-fluoro-2-(2H-1,2,3-triazol-2-yl)phenyl]ethoxy}pyridin-3-yl)-1H-pyrazole-3-carbonitrile]
12 | < 0.2 nM | 12.2 nM | CNCc1ccc(-c2cnc(N)c(O[C@H](C)c3cc(F)ccc3-n3nccn3)c2)c(OC)n1 [Example 100, 5-{(1R)-1-[5-fluoro-2-(2H-1,2,3-triazol-2-yl)phenyl]ethoxy}-2′-methoxy-6′-[(methylamino)methyl]-3,3′-bipyridin-6-amine]
13 | < 0.2 nM | 15.5 nM | CC1CNc2ncc(-c3cnc(N)c(O[C@H](C)c4cc(F)ccc4-n4nccn4)c3)cc2O1 (stereo partly drawn) [Example 79, 3-{(1R)-1-[5-fluoro-2-(2H-1,2,3-triazol-2-yl)phenyl]ethoxy}-5-(2-methyl-3,4-dihydro-2H-pyrido[3,2-b][1,4]oxazin-7-yl)pyridin-2-amine]

Second part, the compound before the results:

Row | Compound | Ki [1] | IC50 [2]
14 | C[C@@H](Oc1cc(-c2ccc3c(c2)S(=O)(=O)CC3O)cnc1N)c1cc(F)ccc1-n1nccn1 (stereo partly drawn) [Example 110, 6-(6-amino-5-{(1R)-1-[5-fluoro-2-(2H-1,2,3-triazol-2-yl)pheny]ethoxy}pyridin-3-yl)-2,3-dihydro-1-benzothiophene-3-ol 1,1-dioxide] | 0.47 nM | 34.4 nM
15 | C[C@@H](Oc1cc(-c2cnn(C3CCNCC3)c2)cnc1N)c1cc(F)ccc1-n1nccn1 [Example 80, 3-{(1R)-1-[5-fluoro-2-(2H-1,2,3-triazol-2-yl)phenyl]ethoxy}-5-[1-(piperidin-4-yl)-1H-pyrazol-4-yl]pyridin-2-amine] | < 0.2 nM | 6.58 nM
16 | Cc1n[nH]cc1-c1cnc(N)c(O[C@H](C)c2cc(F)ccc2-n2nccn2)n1 [Example 67, 3-{(1R)-1-[5-fluoro-2-(2H-1,2,3-triazol-2-yl)phenyl]ethoxy}-5-(3-methyl-1H-pyrazol-4-yl)pyrazin-2-amine] | 0.56 nM | 40.9 nM
17 | Cc1nn(CS(C)(=O)=O)c(C)c1-c1cnc(N)c(O[C@H](C)c2cc(F)ccc2-n2nccn2)c1 [Example 95, 5-{3,5-dimethyl-1-[(methylsulfonyl)methyl]-1H-pyrazol-4-yl}-3-{(1R)-1-[5-fluoro-2-(2H-1,2,3-triazol-2-yl)phenyl]ethoxy}pyridin-2-amine] | 0.2 nM | 13.8 nM
18 | C[C@@H](Oc1cc(-c2cnn(C3CCNCC3F)c2)cnc1N)c1cc(F)ccc1-n1nccn1 (stereo partly drawn) [Example 74, 5-[1-(3-fluoropiperidin-4-yl)-1H-pyrazol-4-yl]-3-{(1R)-1-[5-fluoro-2-(2H-1,2,3-triazol-2-yl)phenyl]ethoxy} pyridin-2-amine] | < 0.2 nM | 6.77 nM
19 | C[C@@H](Oc1cc(-c2ccnc(F)c2F)cnc1N)c1cc(F)ccc1-n1nccn1 [Example 129, 2′,3′-difluoro-5-{(1R)-1-[5-fluoro-2-(2H-1,2,3-triazol-2-yl)phenyl]ethoxy}-3,4′-bipyridin-6-amine] | 5.5 nM | 223 nM
20 | CNCc1ccc(-c2cnc(N)c(OC(C)c3cc(F)ccc3OC)c2)cc1S(C)(=O)=O (stereo not drawn) [Example 134, 3-[1-(5-fluoro-2-methoxyphenyl)ethoxy]-5-{4-[(methylamino)methyl]-3-(methylsulfonyl)phenyl}pyridin-2-amine] | 0.12 nM | 9.1 nM
21 | C[C@@H](Oc1cc(-c2ccnc(N3CCN(C)CC3)c2F)cnc1N)c1cc(F)ccc1-n1nccn1 [Example 132, 3′-fluoro-5-{(1R)-1-[5-fluoro-2-(2H-1,2,3-triazol-2-yl)phenyl]ethoxy}-2,-(4-methylpiperazin-1-yl)-3,4′-bipyridin-6-amine] | < 0.2 nM | 5.67 nM
22 | C[C@@H](Oc1cc(-c2ccnc(N3CCN(C)CC3)c2)cnc1N)c1cc(F)ccc1-n1nccn1 [Example 73, 5-{(1R)-1-[5-fluoro-2-(2H-1,2,3-triazol-2-yl)phenyl]ethoxy}-2′-(4-methylpiperazin-1-yl)-3,4′-bipyridin-6-amine] | < 0.2 nM | 6.73 nM
23 | Cc1ccc(-c2cnc(N)c(O[C@H](C)c3cc(F)ccc3-n3nccn3)c2)cn1 [Example 117, 5-{(1R)-1-[5-fluoro-2-(2H-1,2,3-triazol-2-yl)phenyl]ethoxy}-6′-methyl-3,3′-bipyridin-6-amine] | 0.77 nM | 10.3 nM
24 | COc1ccc(F)cc1C(C)Oc1cc(-c2sc(CO)nc2C)cnc1N (stereo not drawn) [Example 137, (5-{6-amino-5-[1-(5-fluoro-2-methoxyphenyl)ethoxy]pyridin-3-yl}-4-methyl-1,3-thiazol-2-yl)methanol] | 0.398 nM | 2.59 nM
25 | COc1ccc(F)cc1C(C)Oc1cc(-c2nsc(S(C)(=O)=O)n2)cnc1N (stereo not drawn) [Example 133, 3-[1-(5-fluoro-2-methoxyphenyl)ethoxy]-5-[5-(methylsulfonyl)-1,2,4-thiadiazol-3-yl]pyridin-2-amine] | 1.28 nM | 687 nM
26 | C[C@@H](Oc1cc(-c2cnn(C3CCN(C(=O)CN(C)C)CC3)c2)cnc1N)c1cc(F)ccc1-n1nccn1 [Example 128, 1-{4-[4-(6-amino-5-{(1R)-1-[5-fluoro-2-(2H-1,2,3-triazol-2-yl)phenyl]ethoxy}pyridin-3-yl)-1H-pyrazol-1-yl]piperidin-1-yl}-2-(dimethylamino)ethanone] | < 0.2 nM | 9.8 nM
27 | C[C@@H](N)c1ccc(-c2cnc(N)c(O[C@H](C)c3cc(F)ccc3-n3nccn3)c2)cc1 [Example 88, 5-{4-[(1R)-1-aminoethyl]phenyl}-3-{(1R)-1-[5-fluoro-2-(2H-1,2,3-triazol-2-yl)phenyl]ethoxy}-pyridin-2-amine] | < 0.2 nM | 2.61 nM
28 | C[C@@H](Oc1cc(-c2cccc3c2CNC3=O)cnc1N)c1cc(F)ccc1-n1nccn1 [Example 85, 4-(6-Amino-5-((R)-1-(5-fluoro-2-(2H-1,2,3-triazol-2-yl)phenyl)ethoxy)pyridin-3-yl)isoindolin-1-one] | 0.37 nM | 6.81 nM
29 | COc1nc(CO)ccc1-c1cnc(N)c(O[C@H](C)c2cc(F)ccc2-n2nccn2)c1 [Example 93, (6′-amino-5′-{(1R)-1-[5-fluoro-2-(2H-1,2,3-triazol-2-yl)phenyl]ethoxy}-2-methoxy-3,3′-bipyridin-6-yl)methanol] | 0.43 nM | 12.7 nM
30 | C[C@@H](Oc1nc(-c2cnn(C3CCNCC3)c2)cnc1N)c1cc(F)ccc1-n1nccn1 [Example 71, 3-{(1R)-1-[5-fluoro-2-(2H-1,2,3-triazol-2-yl)phenyl]ethoxy}-5-[1-(piperidin-4-yl)-1H-pyrazol-4-yl]pyrazin-2-amine] | < 0.2 nM | 30.3 nM
